The experiment has as its system T1, ChoD.
T1 construct: ORF 547 aa including TAT signal; FAD enzyme
As to the kind of experiment: ABTS/peroxidase coupled H2O2 assay, […] nm, initial rates. The class given is biochemical, Streptomyces lavendulae. As to conditions: pH 7 sodium-potassium phosphate, Triton X-100, ethanol (general assay); 8.4 nM enzyme, 4-168 µM cholesterol.

In general, Km refers to the substrate concentration at which the rate is half of its maximum.

On to `CC(C)CCC[C@@H](C)[C@H]1CC[C@H]2[C@@H]3CC=C4C[C@@H](O)CC[C@]4(C)[C@H]3CC[C@]12C` [cholesterol], for which the Km was found to be 15.9 µM.

The values above are taken from PMC6694107, “Characterization and overproduction of cell-associated cholesterol oxidase ChoD from Streptomyces lavendulae YAKB-15” (Scientific Reports, 2019).
